# Measurements reported in PubChem BioAssay AID330 (DTP/NCI, 2004).
# Several values for one entry are separate records, joined by “and”; a condition that tells them apart may be missing. Identical values can stand only once. Toxic doses and inconclusive results are not listed.
# System: P388 leukemia ip, CD2F1 mice, survival T/C
# Assay: NCI In Vivo Anticancer Drug Screen. Data for tumor model P388 Leukemia (intraperitoneal) in CD2F1 (CDF1) mice
# Conditions: endpoint: median survival time, higher = longer survival
# Method in brief: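 Mice carrying the transplanted tumor received test compound or vehicle. Survival was recorded in each group, and the value is the treated-group measurement divided by that of the vehicle-treated control group.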
# [1] = dose: 50.0 mg/kg/injection, schedule: Q01DX005 (ip), vehicle: Klucel (hydroxypropylcellulose) (HPC)
# [2] = dose: 100.0 mg/kg/injection, schedule: Q01DX005 (ip), vehicle: Klucel (hydroxypropylcellulose) (HPC)
# [3] = dose: 50.0 mg/kg/injection, schedule: Q01DX009 (ip), vehicle: Klucel (hydroxypropylcellulose) (HPC)
# [4] = dose: 50.0 mg/kg/injection, schedule: Q01DX005 (ip), vehicle: saline
# [5] = dose: 100.0 mg/kg/injection, schedule: Q01DX005 (ip), vehicle: saline
# [6] = dose: 200.0 mg/kg/injection, schedule: Q01DX005 (ip), vehicle: saline
# [7] = dose: 100.0 mg/kg/injection, schedule: Q01DX009 (ip), vehicle: Klucel (hydroxypropylcellulose) (HPC)
# [8] = dose: 200.0 mg/kg/injection, schedule: Q01DX005 (ip), vehicle: Klucel (hydroxypropylcellulose) (HPC)
# [9] = dose: 25.0 mg/kg/injection, schedule: Q01DX009 (ip), vehicle: Klucel (hydroxypropylcellulose) (HPC)
smiles,measurement,setting,value
CC1C(=O)C23CCC4C5(C)CCCC4(CN4CCOC45)C2CCC1C3 (centres undefined),T/C,"dose: 1.0 mg/kg/injection, schedule: Q01DX009 (ip), vehicle: Klucel (hydroxypropylcellulose) (HPC)",97 % of control
same,T/C,"dose: 2.0 mg/kg/injection, schedule: Q01DX009 (ip), vehicle: Klucel (hydroxypropylcellulose) (HPC)",95 % of control
same,T/C,"dose: 4.0 mg/kg/injection, schedule: Q01DX009 (ip), vehicle: Klucel (hydroxypropylcellulose) (HPC)",98 % of control
same,T/C,"dose: 8.0 mg/kg/injection, schedule: Q01DX009 (ip), vehicle: Klucel (hydroxypropylcellulose) (HPC)",103 % of control
c1ccc(P(CCP(c2ccccc2)c2ccccc2)c2ccccc2)cc1,T/C,"dose: 25.0 mg/kg/injection, schedule: Q04DX003 (ip), vehicle: Klucel (hydroxypropylcellulose) (HPC)",117 % of control
same,T/C,"dose: 100.0 mg/kg/injection, schedule: Q04DX003 (ip), vehicle: Klucel (hydroxypropylcellulose) (HPC)",153 % of control
same,T/C,"dose: 200.0 mg/kg/injection, schedule: Q04DX003 (ip), vehicle: Klucel (hydroxypropylcellulose) (HPC)",161 % of control
NC1=NS(=O)(=O)Nc2nc[nH]c21,T/C,"dose: 50.0 mg/kg/injection, schedule: Q01DX009 (ip), vehicle: saline with Tween-80",101 % of control
same,T/C,"dose: 100.0 mg/kg/injection, schedule: Q01DX009 (ip), vehicle: saline with Tween-80",100 % of control
CN=C1c2ccccc2C(=O)c2c1c(O)n(-c1ccccc1)c2O,T/C,[1],96 % of control
same,T/C,[2],100 % of control
O=C1CSCC(=O)OCCOCCOCCOCCO1,T/C,"dose: 100.0 mg/kg/injection, schedule: Q04DX003 (ip), vehicle: saline",100 % of control
same,T/C,"dose: 200.0 mg/kg/injection, schedule: Q04DX003 (ip), vehicle: saline",101 % of control
same,T/C,"dose: 400.0 mg/kg/injection, schedule: Q04DX003 (ip), vehicle: saline",100 % of control
N=C=S.N=C=S.O=[N+]([O-])O.[Co+3].[NH2-].[NH2-].[NH2-].[NH2-],T/C,[3],113 % of control
CN1CCC/C1=N\S(=O)(=O)/N=C1\CCCN1C,T/C,[4],92 % of control
same,T/C,[5],100 % of control
same,T/C,[6],99 % of control
CCCCC1NNC(CCCC)NN1 (centres undefined),T/C,[3],104 % of control
same,T/C,[7],104 % of control
Cc1c(C)n2c(=O)n(-c3ccccc3)c(=O)n2c1=O,T/C,"dose: 60.0 mg/kg/injection, schedule: Q01DX005 (ip), vehicle: Klucel (hydroxypropylcellulose) (HPC)",99 % of control
same,T/C,"dose: 120.0 mg/kg/injection, schedule: Q01DX005 (ip), vehicle: Klucel (hydroxypropylcellulose) (HPC)",99 % of control
same,T/C,"dose: 240.0 mg/kg/injection, schedule: Q01DX005 (ip), vehicle: Klucel (hydroxypropylcellulose) (HPC)",99 % of control
COc1cc2c3c(cccc3c1)C(=O)N(CCN(C)C)C2=O,T/C,"dose: 9.5 mg/kg/injection, schedule: Q01DX009 (ip), vehicle: saline with Tween-80",110 % of control
CS(=O)(=O)NCCNS(C)(=O)=O,T/C,"dose: 100.0 mg/kg/injection, schedule: Q04DX003 (ip), vehicle: saline with Tween-80",106 % of control
same,T/C,"dose: 200.0 mg/kg/injection, schedule: Q04DX003 (ip), vehicle: saline with Tween-80",103 % of control
same,T/C,"dose: 400.0 mg/kg/injection, schedule: Q04DX003 (ip), vehicle: saline with Tween-80",103 % of control
CSc1nccn2cnnc12,T/C,"dose: 100.0 mg/kg/injection, schedule: Q01DX001 (ip), vehicle: Klucel (hydroxypropylcellulose) (HPC)",101 % of control
same,T/C,"dose: 200.0 mg/kg/injection, schedule: Q01DX001 (ip), vehicle: Klucel (hydroxypropylcellulose) (HPC)",104 % of control
same,T/C,"dose: 400.0 mg/kg/injection, schedule: Q01DX001 (ip), vehicle: Klucel (hydroxypropylcellulose) (HPC)",101 % of control
CC1(C)CC(C)(OC(=O)c2ccccc2Cl)[N+]([O-])=N1 (centres undefined) (tested in a mixture with another compound),T/C,"dose: 12.5 mg/kg/injection, schedule: Q01DX009 (ip), vehicle: other",99 % of control
same,T/C,"dose: 25.0 mg/kg/injection, schedule: Q01DX009 (ip), vehicle: other",98 % of control
same,T/C,"dose: 50.0 mg/kg/injection, schedule: Q01DX009 (ip), vehicle: other",93 % of control
same,T/C,"dose: 100.0 mg/kg/injection, schedule: Q01DX009 (ip), vehicle: other",94 % of control
same,T/C,"dose: 200.0 mg/kg/injection, schedule: Q01DX009 (ip), vehicle: other",100 % of control
Cc1ccc(S(=O)(=O)NC2CC3(C)CCC2C3(C)C)cc1 (centres undefined),T/C,[1],94 % of control
same,T/C,[2],97 % of control
same,T/C,[8],87 % of control
CC(C)C1N(N2C(=O)CS(=O)(=O)C2C(C)C)C(=O)CS1(=O)=O (centres undefined),T/C,"dose: 50.0 mg/kg/injection, schedule: Q01DX005 (ip), vehicle: saline with Tween-80",98 % of control
same,T/C,"dose: 100.0 mg/kg/injection, schedule: Q01DX005 (ip), vehicle: saline with Tween-80",101 % of control
same,T/C,"dose: 200.0 mg/kg/injection, schedule: Q01DX005 (ip), vehicle: saline with Tween-80",102 % of control
Cc1nc2ncn(-c3ccccc3)c2c(=O)n1-c1cccnc1,T/C,[1],105 % of control
same,T/C,[2],110 % of control
same,T/C,[8],110 % of control
Cc1cc(C)nc(/C=C(\NC(=O)c2ccccc2)c2ccccc2)c1,T/C,"dose: 60.0 mg/kg/injection, schedule: Q01DX005 (ip), vehicle: saline with Tween-80",108 % of control
same,T/C,"dose: 120.0 mg/kg/injection, schedule: Q01DX005 (ip), vehicle: saline with Tween-80",102 % of control
same,T/C,"dose: 240.0 mg/kg/injection, schedule: Q01DX005 (ip), vehicle: saline with Tween-80",101 % of control
Cc1ccc(NC(=O)CO)cc1Cl,T/C,"dose: 50.0 mg/kg/injection, schedule: Q01DX009 (ip), vehicle: saline",103 % of control
same,T/C,"dose: 100.0 mg/kg/injection, schedule: Q01DX009 (ip), vehicle: saline",103 % of control
same,T/C,"dose: 200.0 mg/kg/injection, schedule: Q01DX009 (ip), vehicle: saline",116 % of control
COc1cccc2c1C(=O)c1c(O)c3c(c(O)c1C2=O)CC(O)(C(=O)CO)CC3OC1CC(N)C(I)C(C)O1 (centres undefined),T/C,"dose: 5.0 mg/kg/injection, schedule: Q01DX001 (ip), vehicle: saline",165 % of control and 170 % of control
same,T/C,"dose: 7.5 mg/kg/injection, schedule: Q01DX001 (ip), vehicle: saline",167 % of control and 191 % of control
same,T/C,"dose: 11.2 mg/kg/injection, schedule: Q01DX001 (ip), vehicle: saline",208 % of control and 212 % of control
same,T/C,"dose: 16.8 mg/kg/injection, schedule: Q01DX001 (ip), vehicle: saline",220 % of control
same,T/C,"dose: 25.2 mg/kg/injection, schedule: Q01DX001 (ip), vehicle: saline",234 % of control
Cc1ccc(-n2cnc3c(N)nc(N)nc32)cc1,T/C,"dose: 1.56 mg/kg/injection, schedule: Q01DX005 (ip), vehicle: saline with Tween-80",100 % of control
same,T/C,"dose: 3.13 mg/kg/injection, schedule: Q01DX005 (ip), vehicle: saline with Tween-80",108 % of control
same,T/C,"dose: 6.25 mg/kg/injection, schedule: Q01DX005 (ip), vehicle: saline with Tween-80",108 % of control and 112 % of control
same,T/C,"dose: 12.5 mg/kg/injection, schedule: Q01DX005 (ip), vehicle: saline with Tween-80",115 % of control
O=C1CC(=O)N2C=CC=CC2N1 (centres undefined),T/C,[9],106 % of control
same,T/C,[3],106 % of control
same,T/C,[7],97 % of control
same,T/C,"dose: 200.0 mg/kg/injection, schedule: Q01DX009 (ip), vehicle: Klucel (hydroxypropylcellulose) (HPC)",97 % of control
Oc1c(C(Nc2cccc3cccnc23)c2ccccc2)ccc2cccnc12 (centres undefined),T/C,[9],110 % of control
same,T/C,[3],106 % of control and 111 % of control
same,T/C,[7],106 % of control and 107 % of control
COC(=O)CC1C2(C)C3=C(C)C(c4ccoc4)CC3OC2C2OC(=O)C3(C)C=CC(=O)C1(C)C23 (centres undefined),T/C,"dose: 1.25 mg/kg/injection, schedule: Q01DX009 (ip), vehicle: Klucel (hydroxypropylcellulose) (HPC)",91 % of control
same,T/C,"dose: 2.5 mg/kg/injection, schedule: Q01DX009 (ip), vehicle: Klucel (hydroxypropylcellulose) (HPC)",105 % of control
same,T/C,"dose: 5.0 mg/kg/injection, schedule: Q01DX009 (ip), vehicle: Klucel (hydroxypropylcellulose) (HPC)",86 % of control
same,T/C,"dose: 10.0 mg/kg/injection, schedule: Q01DX009 (ip), vehicle: Klucel (hydroxypropylcellulose) (HPC)",86 % of control
same,T/C,"dose: 20.0 mg/kg/injection, schedule: Q01DX009 (ip), vehicle: Klucel (hydroxypropylcellulose) (HPC)",102 % of control
CC1(C)C2CC=C(CCOC(=S)S)C1C2.[Ni] (centres undefined),T/C,"dose: 25.0 mg/kg/injection, schedule: Q01DX009 (ip), vehicle: saline with Tween-80",90 % of control
O=c1c(O)cccn1C1OC(CO)C(O)C1O (centres undefined),T/C,[4],99 % of control and 97 % of control and 104 % of control
same,T/C,[5],99 % of control and 101 % of control and 117 % of control
same,T/C,[6],104 % of control [middle of 4 runs]
same,T/C,"dose: 400.0 mg/kg/injection, schedule: Q01DX005 (ip), vehicle: saline",102 % of control and 112 % of control and 87 % of control
COc1ccc2c(c1)C(CCN(C)C)(CCN(C)C)C(=O)CC2,T/C,"dose: 12.5 mg/kg/injection, schedule: Q01DX005 (ip), vehicle: saline",94 % of control
same,T/C,"dose: 25.0 mg/kg/injection, schedule: Q01DX005 (ip), vehicle: saline",95 % of control
same,T/C,[4],104 % of control and 94 % of control
